The values that follow come from US7964624B1, “Inhibitors of serine proteases” (priority 2005, dated 2011).

pKi: −log10 of the molar value.

T1 sequence (Q9WMX2 1027-1207, other chains not shown): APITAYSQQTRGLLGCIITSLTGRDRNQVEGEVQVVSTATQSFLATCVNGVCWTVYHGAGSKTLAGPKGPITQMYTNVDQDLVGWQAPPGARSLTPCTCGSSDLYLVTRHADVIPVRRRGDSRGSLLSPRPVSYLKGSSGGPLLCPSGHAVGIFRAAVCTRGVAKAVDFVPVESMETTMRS

This experiment has as its target T1, HCV NS3 protease domain (Hepatitis C virus genotype 1b, UniProt Q9WMX2).
T1 construct: The first 181 amino acids of NS3 (residues 1027-1207 of the viral polyprotein); hexa-histidine (C); made in house; host or cells: E. coli BL21/DE3 pLysS
In words: biochemical. To be noted: Enzyme Assay 1 (HCV NS3 Protease Domain Peptide Cleavage Assay) activity, apparent Ki class.
For `CCC[C@H](NC(=O)[C@@H]1C[C@]2(CC(c3cccc(Cl)c3)=NO2)CN1C(=O)[C@@H](NC(=O)NCC)C(C)(C)C)C(=O)C(=O)NC1CC1` [Compound 123], the negative-log Ki (pKi) (as a rule, the Ki on a negative log10 scale, so that one unit is a factor of ten) is > 7.00.

On to `CCC[C@H](NC(=O)[C@@H]1C[C@]2(CC(c3cccc(Cl)c3)=NO2)CN1C(=O)[C@@H](NC(=O)[C@@H](CC(=O)N1CCCC1)C1CCCCC1)C(C)(C)C)C(=O)C(=O)NC1CC1` [Compound 549], for which the pKi was > 7.00.

For `CCC[C@H](NC(=O)[C@@H]1C[C@]2(CC(c3ccc(Cl)c(Cl)c3)=NO2)CN1C(=O)[C@@H](NC(=O)CC1CCOCC1)C(C)(C)C)C(=O)C(=O)NC1CC1` [Compound 78], the pKi is 6.30 to 7.00.

Take `CCC[C@H](NC(=O)[C@@H]1C[C@]2(CC(c3ccccc3)=NO2)CN1C(=O)CC1CCN(Cc2c(Cl)cccc2Cl)CC1)C(=O)C(=O)NC1CC1` [Compound 53]: the negative logarithm of the Ki (pKi) is < 6.30.

In the case of `CCC[C@H](NC(=O)[C@@H]1C[C@]2(CC(C(=O)c3ccccc3)=NO2)CN1C(=O)[C@@H](NC(=O)O[C@H]1CCOC1)C(C)(C)C)C(=O)C(=O)NC1CC1` [Compound 535], the negative logarithm of the Ki (pKi) was 6.30 to 7.00.

Consider `CCC[C@H](NC(=O)[C@@H]1C[C@]2(CC(c3cccc(Cl)c3)=NO2)CN1C(=O)[C@@H](NC(=O)OCc1cccc(C)c1)C(C)(C)C)C(=O)C(=O)NC1CC1` [Compound 174], for which the negative logarithm of the Ki (pKi) was 6.30 to 7.00.

`CCC[C@H](NC(=O)[C@@H]1C[C@]2(CC(c3ccc4c(c3)OCCO4)=NO2)CN1C(=O)[C@@H](NC(=O)O[C@H]1CCOC1)C(C)(C)C)C(=O)C(=O)NC1CC1` [Compound 456]: the pKi was 6.30 to 7.00.

For `CCC[C@H](NC(=O)[C@@H]1C[C@]2(CC(c3cccc(Cl)c3)=NO2)CN1C(=O)[C@@H](NC(=O)C1CCCCC1C(=O)N1CCCC1)C(C)(C)C)C(=O)C(=O)NC1CC1` (stereo partly drawn) [Compound 311], the negative-log Ki (pKi) is < 6.30.

Turning to `CCC[C@H](NC(=O)[C@@H]1C[C@]2(CC(c3cccc(Cl)c3)=NO2)CN1C(=O)Oc1ccc([N+](=O)[O-])cc1)C(=O)C(=O)NC1CC1` [Compound 262], the negative logarithm of the Ki (pKi) is < 6.30.

As for `CCC[C@H](NC(=O)[C@@H]1C[C@]2(CC(c3cccc(Cl)c3)=NO2)CN1C(=O)[C@@H](NC(=O)NC1CC1)C(C)(C)C)C(=O)C(=O)NC1CC1` [Compound 76], the pKi was 6.30 to 7.00.

As for `CCC[C@H](NC(=O)[C@@H]1C[C@]2(CC(c3cccc(Cl)c3)=NO2)CN1C(=O)[C@@H](NC(=O)CSc1cccc2cccnc12)C(C)(C)C)C(=O)C(=O)NC1CC1` [Compound 454], the pKi is 6.30 to 7.00.

`CCC[C@H](NC(=O)[C@@H]1C[C@]2(CC(c3ccc4c(c3)OCO4)=NO2)CN1C(=O)[C@@H](NC(=O)[C@@H](NC(=O)c1cnccn1)C(C)(C)C)C(C)(C)C)C(=O)C(=O)NC1CC1` [Compound 450]: the pKi is > 7.00.

On to `CCC[C@H](NC(=O)[C@@H]1C[C@]2(CC(c3cccc(Cl)c3)=NO2)CN1C(=O)[C@@H](NC(=O)NCc1cccc(F)c1)C(C)(C)C)C(=O)C(=O)NC1CC1` [Compound 122], for which the negative logarithm of the Ki (pKi) is 6.30 to 7.00.

With `CCC[C@H](NC(=O)[C@@H]1C[C@]2(CC(c3ccc(Cl)c(C)c3)=NO2)CN1C(=O)[C@@H](NC(=O)O[C@H]1CCOC1)C(C)(C)C)C(=O)C(=O)NC1CC1` [Compound 109], the pKi was > 7.00.

For the molecule `CCC[C@H](NC(=O)[C@@H]1C[C@]2(CC(c3cccc(Cl)c3)=NO2)CN1C(=O)c1cc2cc(OC)c(OC)cc2[nH]1)C(=O)C(=O)NC1CC1` [Compound 157], the pKi is < 6.30.

For `CCCC1=NO[C@]2(C1)C[C@@H](C(=O)N[C@@H](CCC)C(=O)C(=O)NC1CC1)N(C(=O)[C@@H](NC(=O)OC1CCOC1)C(C)(C)C)C2` (stereo partly drawn) [Compound 243], the pKi is < 6.30.

On to `CCC[C@H](NC(=O)[C@@H]1C[C@]2(CC(c3cccc(-c4ccncc4)c3)=NO2)CN1C(=O)[C@@H](NC(=O)O[C@H]1CCOC1)C(C)(C)C)C(=O)C(=O)NC1CC1` [Compound 425], for which the pKi is < 6.30.

As for `CCC[C@H](NC(=O)[C@@H]1C[C@]2(CC(c3cncc(Br)c3)=NO2)CN1C(=O)[C@@H](NC(=O)CC1CCCCC1)C(C)(C)C)C(=O)C(=O)NC1CC1` [Compound 41], the negative logarithm of the Ki (pKi) was > 7.00.

In the case of `CCC[C@H](NC(=O)[C@@H]1C[C@]2(CC(c3ccccc3)=NO2)CN1C(=O)[C@@H](NS(=O)(=O)c1cccc2ccccc12)C(C)(C)C)C(=O)C(=O)NC1CC1` [Compound 101], the negative-log Ki (pKi) was < 6.30.

Take `CCC[C@H](NC(=O)[C@@H]1C[C@]2(CC(c3cc(C)c(OC)c(C)c3)=NO2)CN1C(=O)[C@@H](NC(=O)O[C@H]1CCOC1)C(C)(C)C)C(=O)C(=O)NC1CC1` [Compound 191]: the negative-log Ki (pKi) is < 6.30.

As to `CCC[C@H](NC(=O)[C@@H]1C[C@]2(CC(c3ccc(F)c(C(F)(F)F)c3)=NO2)CN1C(=O)O[C@H]1CCOC1)C(=O)C(=O)NC1CC1` [Compound 451], the pKi is < 6.30.

As for `CCC[C@H](NC(=O)[C@@H]1C[C@]2(CC(c3ccc4c(c3)CCO4)=NO2)CN1C(=O)[C@@H](NC(=O)CC1CCCCC1)C(C)(C)C)C(=O)C(=O)NC1CC1` [Compound 552], the negative-log Ki (pKi) is 6.30 to 7.00.

In the case of `CCC[C@H](NC(=O)[C@@H]1C[C@]2(CC(c3cccc(Cl)c3)=NO2)CN1C(=O)[C@@H](NC(=O)OCCc1ccc(F)cc1)C(C)(C)C)C(=O)C(=O)NC1CC1` [Compound 118], the pKi was < 6.30.

In the case of `C#CCCC(NC(=O)[C@@H]1C[C@]2(CC(c3cccc(Cl)c3)=NO2)CN1C(=O)[C@@H](NC(=O)CC1CCCCC1)C(C)(C)C)C(=O)C(=O)NC1CC1` (stereo partly drawn) [Compound 453], the pKi is 6.30 to 7.00.

As to `CCC[C@H](NC(=O)C1C[C@]2(CC(c3ccc4c(c3)OCO4)=NO2)CN1C(=O)c1ccc[nH]1)C(=O)C(=O)NC1CC1` (stereo partly drawn) [Compound 51], the negative logarithm of the Ki (pKi) is < 6.30.

Turning to `CCC[C@H](NC(=O)[C@@H]1C[C@]2(CC(CC)=NO2)CN1C(=O)[C@@H](NC(=O)OCc1ccccc1)C(C)(C)C)C(=O)C(=O)NC1CC1` [Compound 383], the pKi was < 6.30.

As for `CCC[C@H](NC(=O)[C@@H]1C[C@]2(CC(c3cccc(Cl)c3)=NO2)CN1C(=O)[C@@H](NC(=O)[C@H]1COc2ccccc2O1)C(C)(C)C)C(=O)C(=O)NC1CC1` [Compound 71], the pKi was < 6.30.

Regarding `CCC[C@H](NC(=O)[C@@H]1C[C@]2(CC(c3cccc(OC)c3OC)=NO2)CN1C(=O)[C@@H](NC(=O)OCc1ccccc1)C(C)(C)C)C(=O)C(=O)NC1CC1` [Compound 434], the pKi is 6.30 to 7.00.

For `CCC[C@H](NC(=O)[C@@H]1C[C@]2(CC(c3cccc(Cl)c3)=NO2)CN1C(=O)[C@@H](NC(=O)[C@H]1CC[C@@H](OC)CC1)C(C)(C)C)C(=O)C(=O)NC1CC1` [Compound 108], the negative logarithm of the Ki (pKi) was 6.30 to 7.00.

Take `CCC[C@H](NC(=O)[C@@H]1C[C@]2(CC(c3ccc(F)cc3)=NO2)CN1C(=O)[C@@H](NC(C)=O)C(C)(C)C)C(=O)C(=O)NC1CC1` [Compound 331]: the pKi was < 6.30.

For `CCC[C@H](NC(=O)[C@@H]1C[C@]2(CC(c3cccc(Cl)c3)=NO2)CN1C(=O)[C@@H](NC(=O)C1CC=CCC1C(=O)OC)C(C)(C)C)C(=O)C(=O)NC1CC1` (stereo partly drawn) [Compound 557], the pKi was 6.30 to 7.00.

In the case of `CCC[C@H](NC(=O)[C@@H]1C[C@]2(CC(c3cccc(Cl)c3)=NO2)CN1C(=O)[C@@H](NC(=O)CC1CCCCC1)C(C)(C)C)C(=O)C(=O)NCC` [Compound 140], the negative logarithm of the Ki (pKi) was 6.30 to 7.00.

On to `CCC[C@H](NC(=O)[C@@H]1C[C@]2(CC(c3ccc(F)c(Cl)c3)=NO2)CN1C(=O)[C@@H](NC(=O)CC1CCOCC1)C(C)(C)C)C(=O)C(=O)NC1CC1` [Compound 270], for which the negative-log Ki (pKi) is 6.30 to 7.00.

With `CCC[C@H](NC(=O)[C@@H]1C[C@]2(CC(c3nn(C)cc3Cl)=NO2)CN1C(=O)[C@@H](NC(=O)CC1CCCCC1)C(C)(C)C)C(=O)C(=O)NC1CC1` [Compound 495], the negative-log Ki (pKi) was < 6.30.

For `CCC[C@H](NC(=O)[C@@H]1C[C@]2(CC(c3ccccc3)=NO2)CN1C(=O)[C@@H](NC(=O)NCC1CCCCC1)C(C)(C)C)C(=O)C(=O)NC1CC1` [Compound 249], the pKi was 6.30 to 7.00.

`CCC[C@H](NC(=O)[C@@H]1C[C@]2(CC(c3cccc(Cl)c3)=NO2)CN1C(=O)[C@@H](NC(=O)OCC1CCOC1)C(C)(C)C)C(=O)C(=O)NC1CC1` (stereo partly drawn) [Compound 152]: the negative logarithm of the Ki (pKi) was 6.30 to 7.00.

As to `C=C[C@@H]1C[C@]1(NC(=O)[C@@H]1C[C@]2(CC(c3cccc(Cl)c3)=NO2)CN1C(=O)[C@@H](NC(=O)CC1CCCCC1)C(C)(C)C)C(=O)O` [Compound 144], the pKi is < 6.30.

Consider `CCC[C@H](NC(=O)[C@@H]1C[C@]2(CC(c3cccc(Cl)c3)=NO2)CN1C(=O)[C@@H](NC(=O)OCc1ccccc1Cl)C(C)(C)C)C(=O)C(=O)NC1CC1` [Compound 39], for which the pKi is 6.30 to 7.00.

For the molecule `CCC[C@H](NC(=O)[C@@H]1C[C@]2(CC(c3ccc(CC)cc3)=NO2)CN1C(=O)O[C@H]1CCOC1)C(=O)C(=O)NC1CC1` [Compound 47], the negative-log Ki (pKi) is < 6.30.

As for `CCC[C@H](NC(=O)C1C[C@]2(CC(c3ccc(C(F)(F)F)cc3)=NO2)CN1C(=O)[C@@H](NC(=O)O[C@H]1CCOC1)C(C)(C)C)C(=O)C(=O)NC1CC1` (stereo partly drawn) [Compound 52], the pKi is 6.30 to 7.00.

As to `CCC[C@H](NC(=O)[C@@H]1C[C@]2(CC(c3cccc(Cl)c3)=NO2)CN1C(=O)[C@@H](NC(=O)OCC1CCCCO1)C(C)(C)C)C(=O)C(=O)NC1CC1` (stereo partly drawn) [Compound 308], the pKi was 6.30 to 7.00.

On to `CCC[C@H](NC(=O)[C@@H]1C[C@]2(CC(c3cccc(Cl)c3)=NO2)CN1C(=O)[C@@H](NC(=O)N(C)CC)C(C)(C)C)C(=O)C(=O)NC1CC1` [Compound 432], for which the negative-log Ki (pKi) was < 6.30.

Regarding `CCC[C@H](NC(=O)[C@@H]1C[C@]2(CC(c3cccc(Cl)c3)=NO2)CN1C(=O)[C@@H](NC(=O)C1CCOCC1)C(C)(C)C)C(=O)C(=O)NC1CC1` [Compound 523], the pKi is 6.30 to 7.00.

For `CCC[C@H](NC(=O)[C@@H]1C[C@]2(CC(c3cccc(-c4ccccc4)c3)=NO2)CN1C(=O)[C@@H](NC(=O)O[C@H]1CCOC1)C(C)(C)C)C(=O)C(=O)NC1CC1` [Compound 257], the pKi was 6.30 to 7.00.

For the molecule `CCC[C@H](NC(=O)[C@@H]1C[C@]2(CC(c3ccc4c(c3)CCC(C)(C)O4)=NO2)CN1C(=O)[C@@H](NC(=O)O[C@H]1CCOC1)C(C)(C)C)C(=O)C(=O)NC1CC1` [Compound 150], the negative-log Ki (pKi) was 6.30 to 7.00.
